Experimental data as given in ChEMBL document CHEMBL1151757, “Synthesis, radiosynthesis, and biological evaluation of fluorine-18-labeled 2beta-carbo(fluoroalkoxy)-3beta-(3'-((Z)-2-haloethenyl)phenyl)nortropanes: candidate radioligands for in vivo imaging of the serotonin transporter with positron emission tomography” (J Med Chem, 2008).

Columns and labels:
Thalamus [1] = assay: Drug uptake in anesthetized cynomolgus monkey brain thalamus after 27.5 mins postinjection; format: ADME, organism-based, Macaca fascicularis; design: unit not given here; settings: in vivo
Pons [2] = assay: Drug uptake in anesthetized cynomolgus monkey brain pons after 35 mins postinjection; format: ADME, organism-based, Macaca fascicularis; settings: in vivo
[3] = Ratio of drug uptake in medulla to cerebellum in anesthetized cynomolgus monkey after 1.5 mins postinjection; format: ADME, organism-based, Macaca fascicularis; settings: in vivo, 0.025 h
[4] = Drug uptake in anesthetized cynomolgus monkey brain occipital lobe after 27.5 mins postinjection; format: ADME, organism-based, Macaca fascicularis; settings: in vivo
[5] = Ratio of drug uptake in medulla to cerebellum in anesthetized cynomolgus monkey after 165 mins postinjection; format: ADME, organism-based, Macaca fascicularis; settings: in vivo, 2.75 h
Caudate [6] = assay: Drug uptake in anesthetized cynomolgus monkey brain caudate after 105 mins postinjection; format: ADME, organism-based, Macaca fascicularis, Caudate nucleus; settings: in vivo, 1.75 h
[7] = Drug uptake in anesthetized cynomolgus monkey brain occipital lobe after 65 mins postinjection; format: ADME, organism-based, Macaca fascicularis; settings: in vivo
Thalamus [8] = assay: Drug uptake in anesthetized cynomolgus monkey brain thalamus after 85 mins postinjection; format: ADME, organism-based, Macaca fascicularis; design: unit not given here; settings: in vivo
Medulla [9] = assay: Drug uptake in anesthetized cynomolgus monkey brain medulla after 125 mins postinjection; format: ADME, organism-based, Macaca fascicularis; settings: in vivo
Pons [10] = assay: Drug uptake in anesthetized cynomolgus monkey brain pons after 18.5 mins postinjection; format: ADME, organism-based, Macaca fascicularis; settings: in vivo
Thalamus [11] = assay: Drug uptake in anesthetized cynomolgus monkey brain thalamus after 55 mins postinjection; format: ADME, organism-based, Macaca fascicularis; design: unit not given here; settings: in vivo
[12] = Ratio of drug uptake in midbrain to cerebellum in anesthetized cynomolgus monkey after 215 mins postinjection; format: ADME, organism-based, Macaca fascicularis; settings: in vivo
[13] = Ratio of drug uptake in occipital lobe to cerebellum in anesthetized cynomolgus monkey after 235 mins postinjection; format: ADME, organism-based, Macaca fascicularis; settings: in vivo
[14] = Ratio of drug uptake in occipital lobe to cerebellum in anesthetized cynomolgus monkey after 4.5 mins postinjection; format: ADME, organism-based, Macaca fascicularis; settings: in vivo, 0.075 h
Putamen [15] = assay: Drug uptake in anesthetized cynomolgus monkey brain putamen after 27.5 mins postinjection; format: ADME, organism-based, Macaca fascicularis; design: unit not given here; settings: in vivo
Pons [16] = assay: Drug uptake in anesthetized cynomolgus monkey brain pons after 215 mins postinjection; format: ADME, organism-based, Macaca fascicularis; settings: in vivo
Thalamus [17] = assay: Drug uptake in anesthetized cynomolgus monkey brain thalamus after 155 mins postinjection; format: ADME, organism-based, Macaca fascicularis; design: unit not given here; settings: in vivo
[18] = Ratio of drug uptake in pons to cerebellum in anesthetized cynomolgus monkey after 1.5 mins postinjection; format: ADME, organism-based, Macaca fascicularis; settings: in vivo, 0.025 h
Thalamus [19] = assay: Drug uptake in anesthetized cynomolgus monkey brain thalamus after 145 mins postinjection; format: ADME, organism-based, Macaca fascicularis; design: unit not given here; settings: in vivo
Medulla [20] = assay: Drug uptake in anesthetized cynomolgus monkey brain medulla after 6.5 mins postinjection; format: ADME, organism-based, Macaca fascicularis; settings: in vivo
[21] = Ratio of drug uptake in caudate to cerebellum in anesthetized cynomolgus monkey after 65 mins postinjection; format: ADME, organism-based, Macaca fascicularis; settings: in vivo
[22] = Ratio of drug uptake in midbrain to cerebellum in anesthetized cynomolgus monkey after 2.5 mins postinjection; format: ADME, organism-based, Macaca fascicularis; settings: in vivo
[23] = Ratio of drug uptake in thalamus to cerebellum in anesthetized cynomolgus monkey after 9.5 mins postinjection; format: ADME, organism-based, Macaca fascicularis; settings: in vivo
Caudate [24] = assay: Drug uptake in anesthetized cynomolgus monkey brain caudate after 215 mins postinjection; format: ADME, organism-based, Macaca fascicularis, Caudate nucleus; settings: in vivo
Putamen [25] = assay: Drug uptake in anesthetized cynomolgus monkey brain putamen after 6.5 mins postinjection; format: ADME, organism-based, Macaca fascicularis; design: unit not given here; settings: in vivo
Caudate [26] = assay: Drug uptake in anesthetized cynomolgus monkey brain caudate after 235 mins postinjection; format: ADME, organism-based, Macaca fascicularis, Caudate nucleus; settings: in vivo
Pons [27] = assay: Drug uptake in anesthetized cynomolgus monkey brain pons after 115 mins postinjection; format: ADME, organism-based, Macaca fascicularis; settings: in vivo
Pons [28] = assay: Drug uptake in anesthetized cynomolgus monkey brain pons after 235 mins postinjection; format: ADME, organism-based, Macaca fascicularis; settings: in vivo
[29] = Drug uptake in anesthetized cynomolgus monkey brain frontal lobe after 235 mins postinjection; format: ADME, organism-based, Macaca fascicularis; settings: in vivo
[30] = Drug uptake in anesthetized cynomolgus monkey brain frontal lobe after 3.5 mins postinjection; format: ADME, organism-based, Macaca fascicularis; settings: in vivo
[31] = Drug uptake in anesthetized cynomolgus monkey brain occipital lobe after 75 mins postinjection; format: ADME, organism-based, Macaca fascicularis; settings: in vivo, 1.25 h
[32] = Drug uptake in anesthetized cynomolgus monkey brain cerebellum after 215 mins postinjection; format: ADME, organism-based, Macaca fascicularis; settings: in vivo
[33] = Drug uptake in anesthetized cynomolgus monkey brain occipital lobe after 135 mins postinjection; format: ADME, organism-based, Macaca fascicularis; settings: in vivo, 2.25 h
[34] = Ratio of drug uptake in occipital lobe to cerebellum in anesthetized cynomolgus monkey after 18.5 mins postinjection; format: ADME, organism-based, Macaca fascicularis; settings: in vivo
[35] = Drug uptake in anesthetized cynomolgus monkey brain cerebellum after 4.5 mins postinjection; format: ADME, organism-based, Macaca fascicularis; settings: in vivo, 0.075 h
[36] = Drug uptake in anesthetized cynomolgus monkey brain occipital lobe after 18.5 mins postinjection; format: ADME, organism-based, Macaca fascicularis; settings: in vivo
Medulla [37] = assay: Drug uptake in anesthetized cynomolgus monkey brain medulla after 75 mins postinjection; format: ADME, organism-based, Macaca fascicularis; settings: in vivo, 1.25 h
Medulla [38] = assay: Drug uptake in anesthetized cynomolgus monkey brain medulla after 45 mins postinjection; format: ADME, organism-based, Macaca fascicularis; settings: in vivo, 0.75 h
Medulla [39] = assay: Drug uptake in anesthetized cynomolgus monkey brain medulla after 105 mins postinjection; format: ADME, organism-based, Macaca fascicularis; settings: in vivo, 1.75 h
[40] = Ratio of drug uptake in putamen to cerebellum in anesthetized cynomolgus monkey after 6.5 mins postinjection; format: ADME, organism-based, Macaca fascicularis; settings: in vivo
Midbrain [41] = assay: Drug uptake in anesthetized cynomolgus monkey brain midbrain after 235 mins postinjection; format: ADME, organism-based, Macaca fascicularis; settings: in vivo
[42] = Ratio of drug uptake in putamen to cerebellum in anesthetized cynomolgus monkey after 65 mins postinjection; format: ADME, organism-based, Macaca fascicularis; settings: in vivo
[43] = Drug uptake in anesthetized cynomolgus monkey brain frontal lobe after 6.5 mins postinjection; format: ADME, organism-based, Macaca fascicularis; settings: in vivo
Medulla [44] = assay: Drug uptake in anesthetized cynomolgus monkey brain medulla after 85 mins postinjection; format: ADME, organism-based, Macaca fascicularis; settings: in vivo
Pons [45] = assay: Drug uptake in anesthetized cynomolgus monkey brain pons after 225 mins postinjection; format: ADME, organism-based, Macaca fascicularis; settings: in vivo, 3.75 h
[46] = Drug uptake in anesthetized cynomolgus monkey brain occipital lobe after 95 mins postinjection; format: ADME, organism-based, Macaca fascicularis; settings: in vivo
Midbrain [47] = assay: Drug uptake in anesthetized cynomolgus monkey brain midbrain after 85 mins postinjection; format: ADME, organism-based, Macaca fascicularis; design: unit not given here; settings: in vivo
[48] = Drug uptake in anesthetized cynomolgus monkey brain occipital lobe after 175 mins postinjection; format: ADME, organism-based, Macaca fascicularis; settings: in vivo
[49] = Ratio of drug uptake in caudate to cerebellum in anesthetized cynomolgus monkey after 135 mins postinjection; format: ADME, organism-based, Macaca fascicularis; settings: in vivo, 2.25 h
Putamen [50] = assay: Drug uptake in anesthetized cynomolgus monkey brain putamen after 55 mins postinjection; format: ADME, organism-based, Macaca fascicularis; design: unit not given here; settings: in vivo
Thalamus [51] = assay: Drug uptake in anesthetized cynomolgus monkey brain thalamus after 115 mins postinjection; format: ADME, organism-based, Macaca fascicularis; design: unit not given here; settings: in vivo
[52] = Ratio of drug uptake in medulla to cerebellum in anesthetized cynomolgus monkey after 65 mins postinjection; format: ADME, organism-based, Macaca fascicularis; settings: in vivo
[53] = Drug uptake in anesthetized cynomolgus monkey brain occipital lobe after 4.5 mins postinjection; format: ADME, organism-based, Macaca fascicularis; settings: in vivo, 0.075 h
[54] = Drug uptake in anesthetized cynomolgus monkey brain frontal lobe after 9.5 mins postinjection; format: ADME, organism-based, Macaca fascicularis; settings: in vivo
[55] = Drug uptake in anesthetized cynomolgus monkey brain occipital lobe after 105 mins postinjection; format: ADME, organism-based, Macaca fascicularis; settings: in vivo, 1.75 h
[56] = Ratio of drug uptake in caudate to cerebellum in anesthetized cynomolgus monkey after 225 mins postinjection; format: ADME, organism-based, Macaca fascicularis; settings: in vivo, 3.75 h
Medulla [57] = assay: Drug uptake in anesthetized cynomolgus monkey brain medulla after 55 mins postinjection; format: ADME, organism-based, Macaca fascicularis; settings: in vivo
[58] = Drug uptake in anesthetized cynomolgus monkey brain frontal lobe after 115 mins postinjection; format: ADME, organism-based, Macaca fascicularis; settings: in vivo
Medulla [59] = assay: Drug uptake in anesthetized cynomolgus monkey brain medulla after 15.5 mins postinjection; format: ADME, organism-based, Macaca fascicularis; settings: in vivo
Medulla [60] = assay: Drug uptake in anesthetized cynomolgus monkey brain medulla after 65 mins postinjection; format: ADME, organism-based, Macaca fascicularis; settings: in vivo
[61] = Ratio of drug uptake in pons to cerebellum in anesthetized cynomolgus monkey after 225 mins postinjection; format: ADME, organism-based, Macaca fascicularis; settings: in vivo, 3.75 h
Thalamus [62] = assay: Drug uptake in anesthetized cynomolgus monkey brain thalamus after 45 mins postinjection; format: ADME, organism-based, Macaca fascicularis; design: unit not given here; settings: in vivo, 0.75 h

## O=C(OCCC[18F])C1C2CCC(CC1c1cccc(/C=C\Br)c1)N2 (configuration not stated)
Thalamus [1]
  Drug uptake: 5.08
Pons [2]
  Drug uptake: 5.08
[3]
  Ratio: 0.9
[4]
  Drug uptake: 4.71
[5]
  Ratio: 1.7
Caudate [6]
  Drug uptake: 4.9
[7]
  Drug uptake: 4.52
Thalamus [8]
  Drug uptake: 5.27
Medulla [9]
  Drug uptake: 4.99
Pons [10]
  Drug uptake: 4.55
Thalamus [11]
  Drug uptake: 5.46
[12]
  Ratio: 2.2
[13]
  Ratio: 1.4
[14]
  Ratio: 0.7
Putamen [15]
  Drug uptake: 5.95
Pons [16]
  Drug uptake: 3.17
Thalamus [17]
  Drug uptake: 4.27
[18]
  Ratio: 0.8
Thalamus [19]
  Drug uptake: 4.62
Medulla [20]
  Drug uptake: 5.26
[21]
  Ratio: 1.2
[22]
  Ratio: 1
[23]
  Ratio: 0.7
Caudate [24]
  Drug uptake: 3.62
Putamen [25]
  Drug uptake: 4.42
Caudate [26]
  Drug uptake: 3.28
Pons [27]
  Drug uptake: 4.2
Pons [28]
  Drug uptake: 3.26
[29]
  Drug uptake: 2.01
[30]
  Drug uptake: 1.47
[31]
  Drug uptake: 4.29
[32]
  Drug uptake: 2.1
[33]
  Drug uptake: 3.57
[34]
  Ratio: 0.7
[35]
  Drug uptake: 3.51
[36]
  Drug uptake: 4.35
Medulla [37]
  Drug uptake: 5.49
Medulla [38]
  Drug uptake: 5.8
Medulla [39]
  Drug uptake: 5.19
[40]
  Ratio: 0.9
Midbrain [41]
  Drug uptake: 4.33
[42]
  Ratio: 1.3
[43]
  Drug uptake: 2.95
Medulla [44]
  Drug uptake: 5.41
Pons [45]
  Drug uptake: 3.21
[46]
  Drug uptake: 4.16
Midbrain [47]
  Drug uptake: 5.86
[48]
  Drug uptake: 3.06
[49]
  Ratio: 1.5
Putamen [50]
  Drug uptake: 5.97
Thalamus [51]
  Drug uptake: 4.82
[52]
  Ratio: 1.3
[53]
  Drug uptake: 2.44
[54]
  Drug uptake: 3.19
[55]
  Drug uptake: 3.91
[56]
  Ratio: 1.7
Medulla [57]
  Drug uptake: 5.66
[58]
  Drug uptake: 3.2
Medulla [59]
  Drug uptake: 5.77
Medulla [60]
  Drug uptake: 5.61
[61]
  Ratio: 1.6
Thalamus [62]
  Drug uptake: 5.49
